Tests used:
Assay in all cases: relative viability (nuclei count vs DMSO), 5 days (fraction); higher = more cells survive
[1] = compound: C1/C(=C\C2=CC=CS2)/C(=O)/C(=C/C3=CC=CS3)/C1 + Cc1nc(NC(=O)N2CCC[C@H]2C(N)=O)sc1-c1ccnc(C(C)(C)C(F)(F)F)c1 [Alpelisib] (partner 2 µM)
In short: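 A single step with final 0.05% Triton X-100, 1% formaldehyde and 1 ug/ml Hoechst fixed the cells and stained nuclei 5 days after treatment. Lung cancer cell lines in 1536-well plates had been treated by pin tool the day after seeding with one drug alone or a fixed anchor-drug dose plus five library-drug doses (not always all listed) in √10 steps, and nuclei were counted on 4× images. Relative viability is the ratio of nuclei in treated wells to nuclei in vehicle wells, taken as the median of duplicate plates.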

[2] = compound: C[C@]12O[C@H](C[C@]1(O)CO)n1c3ccccc3c3c4c(c5c6ccccc6n2c5c31)CNC4=O [Lestaurtinib]
In short: (§1)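 Only plates meeting two conditions passed: control CV below 25% and at least one doubling. Lung cancer cell lines, kept overnight at 37 °C in 1536-well plates, were pinned with five library-drug doses (not always all listed) √10 apart on vehicle-anchored plates and grown 5 days without medium change. A one-step fix, permeabilisation and Hoechst stain preceded 4× imaging and MetaXpress nuclear counting. Viability equals treated-well nuclei divided by vehicle-well nuclei, as the median over plates.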

[3] = compound: C1/C(=C\C2=CC=CS2)/C(=O)/C(=C/C3=CC=CS3)/C1
In short: as §1

[4] = compound: C1=CC(=CC=C1C2=CC(=C(S2)NC(=O)N)C(=O)N)F [TPCA-1]
In short: as §1

| Cell Line | relative viability ([1]; first compound 0.2 µM) | relative viability ([1]; first compound 0.6325 µM) | relative viability ([1]; first compound 2 µM) | relative viability ([1]; first compound 6.325 µM) | relative viability ([1]; first compound 20 µM) | relative viability ([2]; 0.005 µM) | relative viability ([2]; 0.01581 µM) | relative viability ([2]; 0.05 µM) | relative viability ([2]; 0.1581 µM) | relative viability ([2]; 0.5 µM) | relative viability ([3]; 0.2 µM) | relative viability ([3]; 0.6325 µM) | relative viability ([3]; 2 µM) | relative viability ([3]; 6.325 µM) | relative viability ([3]; 20 µM) | relative viability ([4]; 0.04 µM) | relative viability ([4]; 0.1265 µM) | relative viability ([4]; 0.4 µM) | relative viability ([4]; 1.265 µM) | relative viability ([4]; 4 µM) |
| --- | --- | --- | --- | --- | --- | --- | --- | --- | --- | --- | --- | --- | --- | --- | --- | --- | --- | --- | --- | --- |
| NCI-H2170 | 0.888 | 0.775 | 0.758 | 0.638 | 0.749 | 0.959 | 0.832 | 0.689 | 0.807 | 0.494 | 1 | 0.942 | 0.991 | 0.881 | 0.924 | 1.19 | 0.959 | 0.98 | 0.895 | 0.674 |
| HCC-366 | 0.502 | 0.393 | 0.378 | 0.345 | 0.421 | 1.06 | 1.01 | 1.02 | 1.01 | 0.829 | 1.02 | 1.05 | 1.1 | 0.827 | 1.04 | 1.03 | 0.995 | 1.01 | 1.01 | 0.152 |
| NCI-H2347 | 1.1 | 1.07 | 0.963 | 0.952 | 1.15 | 0.979 | 1.1 | 0.9 | 0.72 | 0.654 | 1.1 | 1.03 | 1.02 | 0.969 | 1.03 | 1.13 | 0.961 | 1.01 | 0.873 | 0.929 |
| COR-L 105 | 1.36 | 1.02 | 0.902 | 0.728 | 0.913 | 0.897 | 0.978 | 0.808 | 0.572 | 0.313 | 0.989 | 0.895 | 0.956 | 0.71 | 0.836 | 1 | 0.9 | 0.99 | 0.806 | 0.615 |
| 201T | 1.01 | 0.964 | 1.08 | 0.934 | 1 | 1.04 | 1.08 | 0.928 | 1.04 | 0.678 | 1.01 | 0.963 | 1.06 | 0.935 | 0.935 | 1.02 | 0.951 | 1 | 1.01 | 0.835 |
| NCI-H2126 | 0.785 | 0.833 | 0.805 | 0.69 | 0.786 | 1.02 | 1.1 | 0.891 | 0.842 | 0.729 | 1.03 | 1.01 | 1.07 | 0.896 | 0.979 | 0.997 | 0.918 | 1.01 | 0.89 | 0.809 |
| LC-2-ad | 0.961 | 0.956 | 0.942 | 0.702 | 0.824 | 1.01 | 1.15 | 0.757 | 0.54 | 0.301 | 1.02 | 1.04 | 1.07 | 0.868 | 0.958 | 1.09 | 0.902 | 1.01 | 0.901 | 0.377 |

From the supplement of paper PMC10307832
